Measured values as given in patent US10851367B2, “Tissue-specific genome engineering using CRISPR-Cas9” (Pfizer Inc., priority 2015, dated 2020).

Molecular target: T1, ASGPR (Homo sapiens, UniProt P07306)
T1 sequence (P07306 148-291 limits assumed): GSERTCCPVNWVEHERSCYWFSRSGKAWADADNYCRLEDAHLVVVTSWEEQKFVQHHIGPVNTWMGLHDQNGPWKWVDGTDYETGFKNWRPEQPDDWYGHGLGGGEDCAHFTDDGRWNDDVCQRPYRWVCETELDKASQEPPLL
Assay: SPR binding measurements for ASGPr ligands (Biacore 3000)
Conditions: biotinylated ASGPR immobilized, 25° C., each run separately reported or n and std dev noted
Protocol: SPR Binding Measurements for ASGPr Ligands:
All SPR measurements with compounds were performed using a Biacore 3000 (GE Healthcare) at 25° C. Biotinylated ASGPR was immobilized typically at 2000-3000 resonance units (Ru) using either SA sensor chips (GE Healthcare) or custom sensor chips with Neutravidin (Pierce Biochemical) immobilized by standard amine coupling to CM5 sensor chips (GE Healthcare). The running buffer was HBS (10 mM HEPES, 150 mM NaCl), 20 mM CaCl2, 0.01% p20, 3% DMSO or 50 mM tris, 150 mM NaCl, 50 mM CaCl2, 0.01% p20, 3% DMSO pH 7.5. Compounds were diluted into running buffer at a concentration of 900 uM and serially diluted 3 fold to 3.7 uM. Compound solutions were injected at 50 ul/min for 1 min followed by a 1 min dissociation in duplicate for each concentration. For the multimeric conjugates (dimers, trimers), the conjugates were diluted in running buffer to concentrations of 100 nM or 10 nM and serially diluted. Conjugates were injected for 2 min and off rates were detected for 300 or 600 sec. After completion of off phase data the compounds were displaced using an injection of 900 uM GalNAc returning the receptor surface to the free state. […] KDs were determined by fitting the steady state binding responses for the compounds and single conjugated molecules in Scrubber2. […]

**Q.** With `CN(C(=O)OC(C)(C)C)[C@H]1[C@H]2OC[C@](CO)(O2)[C@H](O)[C@@H]1O` [Compound 31, tert-butyl [(1S,2R,3R,4R,5S)-2,3-dihydroxy-1-(hydroxymethyl)-6,8-dioxabicyclo[3.2.1]oct-4-yl]methylcarbamate] as the compound, how does the Kd read?
**A.** 12.3 µM
